Measured values as given in patent US8193191B2, “Urotensin II receptor antagonists” (Janssen Pharmaceutica N.V., priority 2006, dated 2012).
Where two headings read alike, the source gives them in different places.

Tests used:
[1] = target: T1, Human UII receptor, 6D9 human rhabdomyosarcoma cells (Homo sapiens, UniProt Q9UKP6); assay: Human UII Calcium Mobilization Assay; format: cell-based; settings: average value, FLIPR TETRA, read-out: Human UII Ca^+ Mobilization Average IC50
T1 construct: 6D9: isolated by dilution subcloning of RMS13 cells, ATCC® Number: CRL-2061; host or cells: 6D9 human rhabdomyosarcoma cells (subclone of RMS13)
T1 sequence (Q9UKP6 1-389): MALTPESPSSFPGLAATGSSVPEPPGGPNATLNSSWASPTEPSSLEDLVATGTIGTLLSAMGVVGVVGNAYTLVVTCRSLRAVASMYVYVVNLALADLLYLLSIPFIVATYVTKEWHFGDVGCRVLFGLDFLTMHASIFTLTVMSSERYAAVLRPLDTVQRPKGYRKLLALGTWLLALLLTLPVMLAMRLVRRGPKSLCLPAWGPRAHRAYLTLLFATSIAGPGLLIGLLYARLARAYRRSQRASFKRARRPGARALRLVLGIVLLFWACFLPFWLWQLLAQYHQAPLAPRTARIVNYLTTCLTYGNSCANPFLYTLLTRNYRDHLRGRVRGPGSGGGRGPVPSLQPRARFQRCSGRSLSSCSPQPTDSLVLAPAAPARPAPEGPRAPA
Outline: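 6D9 rhabdomyosarcoma cells loaded 45 min at 37° C with calcium dye (1.25 mM probenecid, 0.01% FBS, HBSS/20 mM HEPES). Antagonist and U-II agonist added at room temperature; FLIPR fluorescence read over 4 min; EC50/IC50 fitted. DMSO ≤0.1% final.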

[2] = target: T2, rat GPR14 (U-II receptor) (Rattus norvegicus, UniProt P49684); assay: Rat UII Calcium Mobilization FLIPR Assay; format: cell-based; settings: average value for the compound tested; read-out: Rat UII FLIPR Average IC50
T2 construct: expressed in transfected cells
T2 sequence (P49684 1-386): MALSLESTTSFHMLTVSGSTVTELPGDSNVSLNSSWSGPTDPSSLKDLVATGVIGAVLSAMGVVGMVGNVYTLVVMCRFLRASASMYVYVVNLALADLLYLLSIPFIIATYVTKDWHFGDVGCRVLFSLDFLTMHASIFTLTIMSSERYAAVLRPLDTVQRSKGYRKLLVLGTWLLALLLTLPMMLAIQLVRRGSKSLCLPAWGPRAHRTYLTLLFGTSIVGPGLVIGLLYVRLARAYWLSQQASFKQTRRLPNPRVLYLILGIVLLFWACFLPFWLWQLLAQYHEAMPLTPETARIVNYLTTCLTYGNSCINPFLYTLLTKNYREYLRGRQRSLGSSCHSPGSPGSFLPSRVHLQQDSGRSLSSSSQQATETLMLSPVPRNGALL
Outline: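 CHO cells stably expressing rat U-II receptor, seeded 24 h before assay, were loaded with FLIPR calcium dye in HBSS/20 mM HEPES/0.1% BSA/2.5 mM probenecid, pH 7.4, for 1 h at 37° C. Calcium mobilization then read by FLIPR at 23° C.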

[3] = target: T3, endogenous human UII receptor (Homo sapiens, UniProt Q9UKP6); assay: Human Radioligand Binding Assay ((^125I)-U-II binding to human skeletal muscle myoblasts)
T3 sequence (Q9UKP6 1-389): T1 sequence (Q9UKP6 1-389)

| Structure (SMILES) | IC50 [1] | IC50 [2] | Ki [3] | Ki ([3]; read-out: Human UII Average Binding Ki, average value, (^125I)-U-II binding to human skeletal muscle myoblasts (HSMM), 25° C., 3 h) |
| --- | --- | --- | --- | --- |
| CCN1CCN(c2cccc3c2C(=O)N([C@H](CCCNC(=O)OC(C)(C)C)c2ccc(OC)c(OC)c2)C3=O)CC1 [Cpd 197, (R)-{4-(3,4-dimethoxy-phenyl)-4-[4-(4-ethyl-piperazin-1-yl)-1,3-dioxo-1,3-dihydro-isoindol-2-yl]-butyl}-carbamic acid tert-butyl ester] | 0.54 µM | 0.082 µM | 0.22 µM |  |
| COCCC(=O)NCCC[C@H](c1ccc(OC)c(OC)c1)N1C(=O)c2cccc(N3CCN([C@H](C)c4ccccc4)CC3)c2C1=O [Cpd 177, (R)-N-(4-(3,4-dimethoxy-phenyl)-4-{1,3-dioxo-4-[4-(1R)-(1-phenyl-ethyl)-piperazin-1-yl]-1,3-dihydro-isoindol-2-yl}-butyl)-3-methoxy-propionamide] | 1.1 µM | 0.0071 µM | 0.093 µM |  |
| COc1ccc([C@@H](CCCNC(=O)c2cc(C)[nH]c2C)N2C(=O)c3cccc(N4CCN([C@H](C)c5ccccc5)CC4)c3C2=O)cc1OC [Cpd 188, (R)-2,5-dimethyl-1H-pyrrole-3-carboxylic acid (4-(3,4-dimethoxy-phenyl)-4-{1,3-dioxo-4-[4-(1R)-(1-phenyl-ethyl)-piperazin-1-yl]-1,3-dihydro-isoindol-2-yl}-butyl)-amide] | 1.3 µM | 0.02 µM | 0.12 µM |  |
| COc1ccc([C@@H](CCCNS(=O)(=O)c2cnn(C)c2)N2C(=O)c3cccc(N4CCN([C@H](C)c5ccccc5)CC4)c3C2=O)cc1OC [Cpd 136, (R)-1-methyl-1H-pyrazole-4-sulfonic acid (4-(3,4-dimethoxy-phenyl)-4-{1,3-dioxo-4-[4-(1R)-(1-phenyl-ethyl)-piperazin-1-yl]-1,3-dihydro-isoindol-2-yl}-butyl)-amide] | 0.36 µM | 0.0062 µM | 0.061 µM |  |
| COc1ccc([C@@H](CCCNS(=O)(=O)c2cccs2)N2C(=O)c3cccc(N4CCN(Cc5ccoc5)CC4)c3C2=O)cc1OC [Cpd 170, (R)-thiophene-2-sulfonic acid {4-(3,4-dimethoxy-phenyl)-4-[4-(4-furan-3-ylmethyl-piperazin-1-yl)-1,3-dioxo-1,3-dihydro-isoindol-2-yl]-butyl}-amide] | 0.41 µM | 0.0084 µM | 0.031 µM |  |
| COc1ccc(C(CCCNS(=O)(=O)CS(C)(=O)=O)N2C(=O)c3cccc(N4CCN([C@H](C)c5ccccc5)CC4)c3C2=O)cc1OC (stereo partly drawn) [Cpd 110, N-(4-(3,4-dimethoxy-phenyl)-4-{1,3-dioxo-4-[4-(1R)-(1-phenyl-ethyl)-piperazin-1-yl]-1,3-dihydro-isoindol-2-yl}-butyl)-C-methanesulfonyl-methanesulfonamide] | 0.25 µM | 0.019 µM | 0.025 µM |  |
| COc1ccc(C(CCCNS(=O)(=O)N(C)C)N2C(=O)c3cccc(N4CCN([C@H](C)c5ccccc5)CC4)c3C2=O)cc1OC (stereo partly drawn) [Cpd 115, N′-[(4-(3,4-dimethoxy-phenyl)-4-{1,3-dioxo-4-[4-(1R)-(1-phenyl-ethyl)-piperazin-1-yl]-1,3-dihydro-isoindol-2-yl}-butyl)]-N,N-dimethyl-sulfamide] | 0.46 µM | 0.028 µM | 0.039 µM |  |
| COc1ccc([C@@H](CCCNS(=O)(=O)c2c(C)noc2C)N2C(=O)c3cccc(N4CCN([C@H](C)c5ccccc5)CC4)c3C2=O)cc1OC [Cpd 139, (R)-3,5-dimethyl-isoxazole-4-sulfonic acid (4-(3,4-dimethoxy-phenyl)-4-{1,3-dioxo-4-[4-(1R)-(1-phenyl-ethyl)-piperazin-1-yl]-1,3-dihydro-isoindol-2-yl}-butyl)-amide] | 0.29 µM | 0.029 µM | 0.046 µM |  |
| COC(=O)c1sccc1S(=O)(=O)NCCCC(c1ccc(OC)c(OC)c1)N1C(=O)c2cccc(N3CCN([C@H](C)c4ccccc4)CC3)c2C1=O (stereo partly drawn) [Cpd 94, 3-(4-(3,4-dimethoxy-phenyl)-4-{1,3-dioxo-4-[4-(1R)-(1-phenyl-ethyl)-piperazin-1-yl]-1,3-dihydro-isoindol-2-yl}-butylsulfamoyl)-thiophene-2-carboxylic acid methyl ester] | 0.43 µM | 0.065 µM | 0.042 µM |  |
| COc1ccc([C@@H](CCCNC(=O)c2c(C)n[nH]c2C)N2C(=O)c3cccc(N4CCN([C@H](C)c5ccccc5)CC4)c3C2=O)cc1OC [Cpd 215, (R)-3,5-dimethyl-1H-pyrazole-4-carboxylic acid (4-(3,4-dimethoxy-phenyl)-4-{1,3-dioxo-4-[4-(1R)-(1-phenyl-ethyl)-piperazin-1-yl]-1,3-dihydro-isoindol-2-yl}-butyl)-amide] | 0.037 µM | 0.011 µM |  | 0.087 µM |
| CCOCCC[C@H](c1ccc(OC)c(OC)c1)N1C(=O)c2cccc(N3CCN(CC)CC3)c2C1=O [Cpd 207, (R)-2-[1-(3,4-dimethoxy-phenyl)-4-ethoxy-butyl]-4-(4-ethyl-piperazin-1-yl)-isoindole-1,3-dione] | 1.4 µM | 0.2 µM | > 0.3 µM |  |
| CCN1CCN(c2cccc3c2C(=O)N([C@H](CCCOCc2cccs2)c2ccc(OC)c(OC)c2)C3=O)CC1 [Cpd 214, (R)-2-[1-(3,4-dimethoxy-phenyl)-4-(thiophen-2-ylmethoxy)-butyl]-4-(4-ethyl-piperazin-1-yl)-isoindole-1,3-dione] | > 10 µM | 9.5 µM | > 0.3 µM |  |
| COc1ccc(CC(c2ccc(OC)c(OC)c2)N2C(=O)c3cccc(N4CCN([C@H](C)c5ccccc5)CC4)c3C2=O)cc1OC (stereo partly drawn) [Cpd 123, 2-[1,2-bis-(3,4-dimethoxy-phenyl)-ethyl]-4-[4-(1R)-(1-phenyl-ethyl)-piperazin-1-yl]-isoindole-1,3-dione] | 3.1 µM | 0.25 µM | 0.57 µM |  |
| COc1ccc(C(CCCNS(=O)(=O)c2ccccc2)N2C(=O)c3cccc(N4CCN([C@H](C)c5ccccc5)CC4)c3C2=O)cc1OC (stereo partly drawn) [Cpd 96, N-(4-(3,4-dimethoxy-phenyl)-4-{1,3-dioxo-4-[4-(1R)-(1-phenyl-ethyl)-piperazin-1-yl]-1,3-dihydro-isoindol-2-yl}-butyl)-benzenesulfonamide] | 0.76 µM | 0.097 µM | 0.097 µM |  |
| COc1ccc([C@@H](CCNC(=O)c2cnoc2C)N2C(=O)c3cccc(N4CCN([C@H](C)c5ccccc5)CC4)c3C2=O)cc1OC [Cpd 217, (R)-5-methyl-isoxazole-4-carboxylic acid (3-(3,4-dimethoxy-phenyl)-3-{1,3-dioxo-4-[4-(1R)-(1-phenyl-ethyl)-piperazin-1-yl]-1,3-dihydro-isoindol-2-yl}-propyl)-amide] | 1 µM | 0.014 µM | 0.032 µM |  |
| CCOCC(=O)NCCC[C@H](c1ccc(OC)c(OC)c1)N1C(=O)c2cccc(N3CCN([C@H](C)c4ccccc4)CC3)c2C1=O [Cpd 182, (R)-N-(4-(3,4-dimethoxy-phenyl)-4-{1,3-dioxo-4-[4-(1R)-(1-phenyl-ethyl)-piperazin-1-yl]-1,3-dihydro-isoindol-2-yl}-butyl)-2-ethoxy-acetamide] | 0.58 µM | 0.0096 µM | 0.04 µM |  |
| COc1ccc([C@@H](CCCNC(=O)c2csc(C)n2)N2C(=O)c3cccc(N4CCN([C@H](C)c5ccccc5)CC4)c3C2=O)cc1OC [Cpd 156, (R)-2-methyl-thiazole-4-carboxylic acid (4-(3,4-dimethoxy-phenyl)-4-{1,3-dioxo-4-[4-(1R)-(1-phenyl-ethyl)-piperazin-1-yl]-1,3-dihydro-isoindol-2-yl}-butyl)-amide] | 0.49 µM | 0.035 µM | 0.084 µM |  |
| COc1ccc([C@@H](CCCNC(=O)[C@H]2CCCN2C(C)=O)N2C(=O)c3cccc(N4CCN([C@H](C)c5ccccc5)CC4)c3C2=O)cc1OC [Cpd 149, (R)-1-acetyl-pyrrolidine-2-carboxylic acid (R)-(4-(3,4-dimethoxy-phenyl)-4-{1,3-dioxo-4-[4-(1R)-(1-phenyl-ethyl)-piperazin-1-yl]-1,3-dihydro-isoindol-2-yl}-butyl)-amide] | 0.76 µM | 0.015 µM | 0.071 µM |  |
